Source: patent publication US11464770B2, “Anticancer pharmaceutical composition” (NATIONAL CANCER CENTER, priority 2016, dated 2022)
pIC50: −log10 of the molar value. Read-outs that look alike come from different tables or passages of the source.

How the values were obtained:
[1] = test system: colorectal cancer cell lines (e.g. DLD-1, HCT 116, SW620, HCT-15, HCT-8, RKO); assay: Cell based assay, cell viability (CellTiter-Glo), colorectal cancer cell lines; settings: Homo sapiens, 72 hours treatment
In short: (§1)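 ATP content as viability surrogate, luminescent read; 72 h compound, 0–2 μM final; cells plated 24 h prior.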

neuroblastoma cell lines = assay: Cell based assay, cell viability (CellTiter-Glo), neuroblastoma cell lines; settings: Homo sapiens; SH-SY5Y cell line
In short: as §1

liver cancer cell lines = assay: Cell based assay, cell viability (CellTiter-Glo), liver cancer cell lines; settings: Homo sapiens, SK-HEP1; SK-HEP-1 cell line
In short: as §1

[2] = DLD-1 cells, read-out: IC50, colorectal cancer cell line DLD-1
[3] = HCT 116 cells, read-out: IC50, colorectal cancer cell line HCT 116
[4] = HCT-8 cells, read-out: IC50, colorectal cancer cell line HCT-8
[5] = HCT-15 cells, read-out: IC50, colorectal cancer cell line HCT-15
[6] = HT-29 cells, read-out: IC50, colorectal cancer cell line HT-29
[7] = LoVo cells, read-out: IC50, colorectal cancer cell line LoVo
[8] = RKO cells, read-out: IC50, colorectal cancer cell line RKO
[9] = SW480 cells, read-out: IC50, colorectal cancer cell line SW480
[10] = SW-620, SW620 cells, read-out: IC50, colorectal cancer cell line SW620

pIC50 [1, 2] | pIC50 [1, 3] | pIC50 [1, 4] | pIC50 [1, 5] | pIC50 [1, 6] | pIC50 [1, 7] | pIC50 [1, 8] | pIC50 [1, 9] | pIC50 [1, 10] | pIC50 (neuroblastoma cell lines) | pIC50 (liver cancer cell lines) | SMILES
< 5.70 | < 5.70 | < 5.70 | < 5.70 | < 5.00 | < 5.70 | < 5.70 | < 5.70 | < 5.70 | < 5.70 | < 5.70 | O=C(c1ccccc1)c1c([S+]([O-])Cc2ccc(S(F)(F)(F)(F)F)cc2)[nH]c2c(F)ccc(F)c2c1=O (centres unmarked) [Compound 87, 3-benzoyl-5,8-difluoro-2-((4-(pentafluoro--sulfanyl)benzyl)sulfinyl)quinolin-4(1H)-one]
< 5.70 | < 5.70 | < 5.70 | < 5.70 | < 5.00 | < 5.70 | < 5.70 | < 5.70 | < 5.70 | 5.82 | < 5.70 | Cc1cc(C[S+]([O-])c2[nH]c3c(Cl)ccc(Cl)c3c(=O)c2C(=O)c2ccccc2)no1 (centres unmarked) [Compound 88, 3-benzoyl-5,8-dichloro-2-(((5-methylisoxazol-3-yl)methyl)sulfinyl)quinolin-4(1H)-one]
< 5.70 | < 5.70 | < 5.70 | < 5.70 | < 5.00 | < 5.70 | < 5.70 | < 5.70 | < 5.70 | < 5.70 | < 5.70 | CC(=O)c1c([S+]([O-])CN2C(=O)c3ccccc3C2=O)[nH]c2c(Cl)ccc(Cl)c2c1=O (centres unmarked) [Compound 90, 2-(((3-acetyl-5,8-dichloro-4-oxo-1,4-dihydroquinolin-2-yl)sulfinyl)methyl)isoindoline-1,3-dione]
5.74 | < 5.70 | < 5.70 | < 5.70 | < 5.00 | < 5.70 | 5.85 | < 5.70 | < 5.70 | 5.91 | 5.76 | COC(=O)c1ccc(C[S+]([O-])c2[nH]c3c(Cl)ccc(Cl)c3c(=O)c2C(C)=O)cc1 (centres unmarked) [Compound 91, methyl 4-(((3-acetyl-5,8-dichloro-4-oxo-1,4-dihydroquinolin-2-yl)sulfinyl)methyl)benzoate]
< 5.70 | < 5.70 | < 5.70 | < 5.70 | < 5.00 | < 5.70 | < 5.70 | < 5.70 | < 5.70 | < 5.70 | < 5.70 | COc1cccc2[nH]c(SCc3ccc(S(F)(F)(F)(F)F)cc3)c(C(C)=O)c(=O)c12 [Compound 92, 3-acetyl-5-methoxy-2-((4-(pentafluoro--sulfanyl)benzyl)thio)quinolin-4(1H)-one]
< 5.70 | < 5.70 | < 5.70 | < 5.70 | < 5.00 | < 5.70 | < 5.70 | < 5.70 | < 5.70 | < 5.70 | < 5.70 | COc1cccc2[nH]c([S+]([O-])Cc3ccc(S(F)(F)(F)(F)F)cc3)c(C(C)=O)c(=O)c12 (centres unmarked) [Compound 93, 3-acetyl-5-methoxy-2-((4-(pentafluoro--sulfanyl)benzyl)sulfinyl)quinolin-4(1H)-one]
< 5.70 | < 5.70 | < 5.70 | < 5.70 | < 5.00 | < 5.70 | < 5.70 | < 5.70 | < 5.70 | 5.75 | < 5.70 | COc1cccc2[nH]c([S+]([O-])Cc3cc(C)on3)c(C(C)=O)c(=O)c12 (centres unmarked) [Compound 94, 3-acetyl-5-methoxy-2-(((5-methylisoxazol-3-yl)methyl)sulfinyl)quinolin-4(1H)-one]
5.74 | 5.82 | < 5.70 | 5.73 | < 5.00 | < 5.70 | 5.80 | < 5.70 | 5.78 | 6.11 | 5.71 | Cc1cc(C[S+]([O-])c2[nH]c3c(Br)ccc(Cl)c3c(=O)c2C(=O)C2CC2)no1 (centres unmarked) [Compound 96, 8-bromo-5-chloro-3-(cyclopropanecarbonyl)-2-(((5-methylisoxazol-3-yl)methyl)sulfinyl)quinolin-4(1H)-one]
5.87 | 5.90 | 5.87 | 5.85 | < 5.00 | 5.82 | 5.90 | 5.77 | 5.96 | 6.22 | 5.97 | Cc1cc(C[S+]([O-])c2[nH]c3c(Cl)ccc(Cl)c3c(=O)c2C(=O)C2CC2)no1 (centres unmarked) [Compound 97, 5,8-dichloro-3-(cyclopropanecarbonyl)-2-(((5-methylisoxazol-3-yl)methyl)sulfinyl)quinolin-4(1H)-one]
5.82 | 5.83 | 5.78 | 5.76 | < 5.00 | < 5.70 | 5.87 | < 5.70 | 5.75 | 6.08 | 5.92 | CC(=O)c1c([S+]([O-])Cc2ccc(C#N)s2)[nH]c2c(Br)ccc(Cl)c2c1=O (centres unmarked) [Compound 98, 5-(((3-acetyl-8-bromo-5-chloro-4-oxo-1,4-dihydroquinolin-2-yl)sulfinyl)methyl)thiophene-2-carbonitrile]
6.06 | 6.09 | 6.01 | 6.01 | < 5.00 | 5.84 | 6.02 | 5.89 | 6.04 | 6.35 | 5.97 | CC(=O)c1c([S+]([O-])Cc2ccc(-n3cccn3)nc2)[nH]c2c(Br)ccc(Cl)c2c1=O (centres unmarked) [Compound 99, 2-(((6-(1H-pyrazol-1-yl)pyridin-3-yl)methyl)sulfinyl)-3-acetyl-8-bromo-5-chloroquinolin-4(1H)-one]
< 5.70 | < 5.70 | < 5.70 | < 5.70 | < 5.00 | < 5.70 | < 5.70 | < 5.70 | < 5.70 | < 5.70 | < 5.70 | CC(=O)c1c([S+]([O-])Cc2ccc(N)nc2)[nH]c2c(Br)ccc(Cl)c2c1=O (centres unmarked) [Compound 100, 3-acetyl-2-(((6-aminopyridin-3-yl)methyl)sulfinyl)-8-bromo-5-chloroquinolin-4(1H)-one]
< 5.70 | 5.76 | 5.79 | < 5.70 | < 5.00 | < 5.70 | 5.72 | < 5.70 | < 5.70 | 5.85 | < 5.70 | O=C(c1c([S+]([O-])Cc2ccc(SC(F)(F)F)cc2)[nH]c2c(Br)ccc(Cl)c2c1=O)C1CC1 (centres unmarked) [Compound 101, 8-bromo-5-chloro-3-(cyclopropanecarbonyl)-2-((4-((trifluoromethyl)thio)benzyl)sulfinyl)quinolin-4(1H)-one]
5.94 | 5.91 | 5.91 | 5.88 | < 5.00 | 5.71 | 5.92 | 5.80 | 5.91 | 6.28 | < 5.70 | CC(=O)c1c([S+]([O-])Cc2ccc(C(F)(F)F)nc2C)[nH]c2c(Br)ccc(Cl)c2c1=O (centres unmarked) [Compound 102, 3-acetyl-8-bromo-5-chloro-2-(((2-methyl-6-(trifluoromethyl)pyridin-3-yl)methyl)sulfinyl)quinolin-4(1H)-one]
< 5.70 | < 5.70 | < 5.70 | < 5.70 | < 5.00 | < 5.70 | < 5.70 | < 5.70 | < 5.70 | 6.00 | < 5.70 | CC(=O)c1c([S+]([O-])Cc2ccc(NS(C)(=O)=O)cc2)[nH]c2c(Br)ccc(Cl)c2c1=O (centres unmarked) [Compound 103, N-(4-(((3-acetyl-8-bromo-5-chloro-4-oxo-1,4-dihydroquinolin-2-yl)sulfinyl)methyl)phenyl)methane-sulfonamide]
5.91 | 5.88 | 5.89 | 5.83 | < 5.00 | < 5.70 | 5.94 | 5.80 | 5.87 | 6.22 | 5.82 | CC(=O)c1c([S+]([O-])Cc2ccc(Cl)nc2)[nH]c2c(Br)ccc(Cl)c2c1=O (centres unmarked) [Compound 104, 3-acetyl-8-bromo-5-chloro-2-(((6-chloropyridin-3-yl)methyl)sulfinyl)quinolin-4(1H)-one]
< 5.70 | < 5.70 | < 5.70 | < 5.70 | < 5.00 | < 5.70 | < 5.70 | < 5.70 | < 5.70 | < 5.70 | < 5.70 | COCCNc1ccc(C[S+]([O-])c2[nH]c3c(Br)ccc(Cl)c3c(=O)c2C(C)=O)cn1 (centres unmarked) [Compound 105, 3-acetyl-8-bromo-5-chloro-2-(((6-((2-methoxyethyl)amino)pyridin-3-yl)methyl)sulfinyl)quinolin-4(1H)-one]
< 5.70 | < 5.70 | < 5.70 | < 5.70 | < 5.00 | < 5.70 | < 5.70 | < 5.70 | < 5.70 | 5.89 | < 5.70 | CC(=O)c1c([S+]([O-])Cc2nonc2C)[nH]c2c(Br)ccc(Cl)c2c1=O (centres unmarked) [Compound 106, 3-acetyl-8-bromo-5-chloro-2-(((4-methyl-1,2,5-oxadiazol-3-yl)methyl)sulfinyl)quinolin-4(1H)-one]
< 5.70 | < 5.70 | < 5.70 | < 5.70 | < 5.00 | < 5.70 | < 5.70 | < 5.70 | < 5.70 | < 5.70 | < 5.70 | CC(=O)c1c([S+]([O-])Cc2cnc3[nH]ccc3c2)[nH]c2c(Br)ccc(Cl)c2c1=O (centres unmarked) [Compound 107, 2-(((1H-pyrrolo[2,3-b]pyridin-5-yl)methyl)sulfinyl)-3-acetyl-8-bromo-5-chloroquinolin-4(1H)-one]
